Measurements from PubChem BioAssay AID248 (DTP/NCI, 2004).
Where “and” joins values, the source holds several entries; their conditions need not be identical. Equal entries are not always repeated. Inconclusive results and toxic doses are left out.

System: L1210 leukemia ip in BDF1 mice, survival T/C
Assay: NCI In Vivo Anticancer Drug Screen. Data for tumor model L1210 Leukemia (intraperitoneal) in B6D2F1 (BDF1) mice
Details: endpoint: mean survival time, higher = longer survival
In short: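 Value reflects the ratio of survival in compound-treated mice to survival in vehicle-treated controls, with both groups carrying the same transplanted tumor.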

[1] = dose: 100.0 mg/kg/injection, schedule: Q04DX002 (ip), vehicle: Klucel (hydroxypropylcellulose) (HPC)
[2] = dose: 200.0 mg/kg/injection, schedule: Q04DX002 (ip), vehicle: Klucel (hydroxypropylcellulose) (HPC)
[3] = dose: 400.0 mg/kg/injection, schedule: Q04DX002 (ip), vehicle: Klucel (hydroxypropylcellulose) (HPC)
[4] = dose: 100.0 mg/kg/injection, schedule: Q01DX009 (ip), vehicle: Klucel (hydroxypropylcellulose) (HPC)
[5] = dose: 200.0 mg/kg/injection, schedule: Q01DX009 (ip), vehicle: Klucel (hydroxypropylcellulose) (HPC)
[6] = dose: 400.0 mg/kg/injection, schedule: Q01DX009 (ip), vehicle: Klucel (hydroxypropylcellulose) (HPC)

For O=C1OC2CCCCC2c2ccccc21 (centres undefined), which T/C (dose: 100.0 mg/kg/injection, schedule: Q01DX009 (ip), vehicle: saline with Tween-80) is on record?
The T/C was 98 % of control.

And the T/C (dose: 200.0 mg/kg/injection, schedule: Q01DX009 (ip), vehicle: saline with Tween-80)?
The T/C was 103 % of control.

What about the T/C (dose: 400.0 mg/kg/injection, schedule: Q01DX009 (ip), vehicle: saline with Tween-80) of the same molecule?
Its T/C is 103 % of control.

What does the source list for COc1ccc(OCC(=O)c2ccccc2)cc1?
T/C (dose: 100.0 mg/kg/injection, schedule: Q04DX003 (ip), vehicle: Klucel (hydroxypropylcellulose) (HPC)): 102 % of control; T/C (dose: 200.0 mg/kg/injection, schedule: Q04DX003 (ip), vehicle: Klucel (hydroxypropylcellulose) (HPC)): 98 % of control; T/C (dose: 400.0 mg/kg/injection, schedule: Q04DX003 (ip), vehicle: Klucel (hydroxypropylcellulose) (HPC)): 98 % of control

Which T/C (dose: 100.0 mg/kg/injection, schedule: Q01DX001 (ip), vehicle: carboxymethylcellulose (CMC)) does the source give for O=C(/C(=C\c1ccccc1)Oc1ccc(S[N+](=O)[O-])cc1)c1ccccc1 here?
The T/C was 95 % of control.

And the T/C (dose: 200.0 mg/kg/injection, schedule: Q01DX001 (ip), vehicle: carboxymethylcellulose (CMC))?
The T/C was 92 % of control.

And the T/C (dose: 400.0 mg/kg/injection, schedule: Q01DX001 (ip), vehicle: carboxymethylcellulose (CMC))?
Its T/C is 95 % of control.

For COc1ccc(CC2COC(O)C2Cc2ccc(OC3OC(CO)C(O)C(O)C3O)c(OC)c2)cc1OC (centres undefined), which T/C (dose: 100.0 mg/kg/injection, schedule: Q04DX002 (ip), vehicle: saline) is on record?
Its T/C is 102 % of control.

What about the T/C (dose: 200.0 mg/kg/injection, schedule: Q04DX002 (ip), vehicle: saline) of the same molecule?
Its T/C is 112 % of control.

And the T/C (dose: 400.0 mg/kg/injection, schedule: Q04DX002 (ip), vehicle: saline)?
Its T/C is 87 % of control.

Which T/C (dose: 75.0 mg/kg/injection, schedule: Q01DX001 (ip), vehicle: saline) does the source give for c1ccc(C(CCCCC(c2ccccc2)c2ccccc2)c2ccccc2)cc1 here?
The T/C was 94 % of control.

What about the T/C (dose: 150.0 mg/kg/injection, schedule: Q01DX001 (ip), vehicle: saline) of the same molecule?
The T/C was 92 % of control.

What about the T/C (dose: 300.0 mg/kg/injection, schedule: Q01DX001 (ip), vehicle: saline) of the same molecule?
The T/C was 93 % of control.

With O=S(=O)(c1ccccc1)C1C2CCC(O2)C1S(=O)(=O)c1ccccc1 (centres undefined) as the molecule, how does the T/C [1] read?
Its T/C is 103 % of control.

What about the T/C [2] of the same molecule?
The T/C was 92 % of control.

What about the T/C [3] of the same molecule?
The T/C was 89 % of control.

With O=C(CCCC(=O)N/N=C/c1ccccc1O)N/N=C\c1ccccc1O as the molecule, how does the T/C (dose: 50.0 mg/kg/injection, schedule: Q01DX001 (ip), vehicle: saline) read?
Its T/C is 87 % of control.

What about the T/C (dose: 100.0 mg/kg/injection, schedule: Q01DX001 (ip), vehicle: saline) of the same molecule?
Its T/C is 90 % of control.

What about the T/C (dose: 400.0 mg/kg/injection, schedule: Q01DX001 (ip), vehicle: saline) of the same molecule?
The T/C was 90 % of control.

Which results are given for O=C(Nc1cccc(C2=NCCN2)c1)Nc1cc(C(=O)Nc2ccc(C3=NCCN3)cc2)ccc1C(=O)Nc1ccc(C2=NCCN2)cc1?
T/C (dose: 1.88 mg/kg/injection, schedule: Q01DX Z (ip), vehicle: saline): 121 % of control; T/C (dose: 3.75 mg/kg/injection, schedule: Q01DX Z (ip), vehicle: saline): 123 % of control; T/C (dose: 3.75 mg/kg/injection, schedule: Q01DX Z (oral), vehicle: saline): 98 % of control; T/C (dose: 7.5 mg/kg/injection, schedule: Q01DX Z (ip), vehicle: saline): 161 % of control; T/C (dose: 7.5 mg/kg/injection, schedule: Q01DX Z (oral), vehicle: saline): 104 % of control; T/C (dose: 15.0 mg/kg/injection, schedule: Q01DX Z (oral), vehicle: saline): 103 % of control; T/C (dose: 30.0 mg/kg/injection, schedule: Q01DX Z (oral), vehicle: saline): 101 % of control; T/C (dose: 62.5 mg/kg/injection, schedule: Q01DX010 (oral), vehicle: saline): 101 % of control; T/C (dose: 125.0 mg/kg/injection, schedule: Q01DX010 (oral), vehicle: saline): 108 % of control; T/C (dose: 250.0 mg/kg/injection, schedule: Q01DX010 (oral), vehicle: saline): 105 % of control

How did the T/C [1] turn out when NOC(=O)c1ccc([N+](=O)[O-])cc1 was run?
Its T/C is 94 % of control.

And the T/C [2]?
The T/C was 94 % of control.

What about the T/C [3] of the same molecule?
Its T/C is 94 % of control.

Which results are given for COc1ccc(/C=N/NC(=O)COCC(=O)N/N=C/c2ccc(OC)c(OC)c2)cc1OC?
T/C [4]: 101 % of control; T/C [5]: 95 % of control; T/C [6]: 92 % of control

COc1ccc(CC2(C#N)c3ccccc3C=CN2C(=O)c2ccccc2)c([N+](=O)[O-])c1OC (centres undefined) was tested. Which T/C (dose: 50.0 mg/kg/injection, schedule: Q04DX002 (ip), vehicle: saline with Tween-80) did it give?
The T/C was 97 % of control.

What about the T/C (dose: 100.0 mg/kg/injection, schedule: Q04DX002 (ip), vehicle: saline with Tween-80) of the same molecule?
The T/C was 87 % of control.

And the T/C (dose: 200.0 mg/kg/injection, schedule: Q04DX002 (ip), vehicle: saline with Tween-80)?
The T/C was 97 % of control.

How did the T/C (dose: 50.0 mg/kg/injection, schedule: Q01DX009 (ip), vehicle: Klucel (hydroxypropylcellulose) (HPC)) turn out when CSc1ccc(NC(=O)Nc2cc(Cl)c(Cl)cc2C)cc1 was run?
The T/C was 87 % of control.

And the T/C [4]?
Its T/C is 87 % of control.

And the T/C [5]?
Its T/C is 86 % of control and 92 % of control.

And the T/C [6]?
The T/C was 86 % of control.
